# Data published in article PMC12019328, “Discovery of an ApoE4-targeted small-molecule SirT1 enhancer for the treatment of Alzheimer’s disease” (Scientific Reports, 2025).
# Assays:
# [1] = system: ApoE4-TR:5xFAD mice; test: Barnes maze testing in ApoE4-TR:5xFAD mice; assay type: in vivo; details: 20 mg/Kg BID oral, 56 days, vs vehicle
# Description: (§1) The active (-) enantiomer, DDL-218, underwent efficacy testing in ApoE4-TR:5xFAD mice[27] that were 6-7.5 months old at the start of treatment. ApoE4-TR:5xFAD male and female mice received either 20 mg/Kg DDL-218 BID (~ 8- to10-hour interval; total daily dose of 40 mkd) on weekdays and a single 40 mg/Kg dose on weekends (n = 12) or vehicle-only (n = 11); 8 C57BL/6 mice received vehicle-only as behavioral controls. Dosing was by the oral route and by oral feeding using a pipette as previously described, not gavage, as it is safer for repeated oral dosing than gavage. The dose of 20 mg/kg BID (40 mkd) was selected based on findings from PK analysis and was the highest feasible in the formulation used for oral feeding (compound is first solubilized in water, then mixed strawberry syrup diluted in water, for a final vehicle that is 25% syrup and 75% water). The final concentration of DDL-218 was chosen to deliver 20 mg/Kg in a volume of 10–20 µL (adjusted to the weight of each mouse). […]
# For the probe test of memory, 48 h after the last training, the escape hole is closed and the escape box removed. […] Analysis of latency over the course of training trials was performed using ANY-Maze Software (Wood Dale, IL) and probe data was calculated manually as the software excludes mice that […] the escape hole within 90 s; in manual scoring, they are assigned a 90 s latency.
# [2] = system: NFYb mRNA; test: Hippocampal NFYb mRNA in ApoE4-TR:5xFAD mice; assay type: in vivo; details: 20 mg/Kg BID, 56 days, vs vehicle
# Description: as §1, with “water).” for “water). The final concentration of DDL-218 was chosen to deliver 20 mg/Kg in a volume of 10–20 µL (adjusted to the weight of each mouse).”
# Total RNA was isolated from cells or brain tissue (Qiagen RNEasy kit). Total RNA (0.5–1.0 µg) mRNA was then converted to cDNA (SuperScript™ III First-Strand Synthesis SuperMix kit; Thermo Fisher), and gene mRNA levels were measured using a gene-specific qRT-PCR Taqman assays (Thermo Fisher). Gene mRNA levels were normalized to GAPDH mRNA levels measured either in the same cDNA sample or in the same qPCR reaction using multiplexing of gene-of-interest/VIC and GAPDH/FAM, normalized by the delta-delta-Ct method.
# [3] = system: SirT1 protein; test: SirT1 protein levels in hippocampi of ApoE4-TR:5xFAD mice; assay type: in vivo; details: 56 days, vs vehicle, not statistically significant
# Description: (§2) The active (-) enantiomer, DDL-218, underwent efficacy testing in ApoE4-TR:5xFAD mice[27] that were 6-7.5 months old at the start of treatment. ApoE4-TR:5xFAD male and female mice received either 20 mg/Kg DDL-218 BID (~ 8- to10-hour interval; total daily dose of 40 mkd) on weekdays and a single 40 mg/Kg dose on weekends (n = 12) or vehicle-only (n = 11); 8 C57BL/6 mice received vehicle-only as behavioral controls. Dosing was by the oral route and by oral feeding using a pipette as previously described, not gavage, as it is safer for repeated oral dosing than gavage. The dose of 20 mg/kg BID (40 mkd) was selected based on findings from PK analysis and was the highest feasible in the formulation used for oral feeding (compound is first solubilized in water, then mixed strawberry syrup diluted in water, for a final vehicle that is 25% syrup and 75% water). The final concentration of DDL-218 was chosen to deliver 20 mg/Kg in a volume of 10–20 µL (adjusted to the weight of each mouse). Mice were treated for 56 days (8 weeks); in week 7, mice underwent Barnes maze testing[29] as described below.
# On Day 56, mice were euthanized 2 h after the a.m. dose by pentobarbital over-anesthesia and cardiac puncture for the collection of blood in EDTA tubes on ice for the isolation of plasma by centrifugation at 3,000 x g for 10 min at 4 °C. Mice were perfused with saline at 5 ml/min. […]
# [4] = Observable adverse effects in 56-day oral treatment of AD model mice; assay type: in vivo; details: 56-day oral treatment of ApoE4-expressing AD model mice
# Description: as §2
# [5] = target: hERG (human Ether-a-go-go-Related Gene) (Homo sapiens, UniProt Q12809); test: hERG
# hERG (human Ether-a-go-go-Related Gene), sequence (Q12809 whole entry): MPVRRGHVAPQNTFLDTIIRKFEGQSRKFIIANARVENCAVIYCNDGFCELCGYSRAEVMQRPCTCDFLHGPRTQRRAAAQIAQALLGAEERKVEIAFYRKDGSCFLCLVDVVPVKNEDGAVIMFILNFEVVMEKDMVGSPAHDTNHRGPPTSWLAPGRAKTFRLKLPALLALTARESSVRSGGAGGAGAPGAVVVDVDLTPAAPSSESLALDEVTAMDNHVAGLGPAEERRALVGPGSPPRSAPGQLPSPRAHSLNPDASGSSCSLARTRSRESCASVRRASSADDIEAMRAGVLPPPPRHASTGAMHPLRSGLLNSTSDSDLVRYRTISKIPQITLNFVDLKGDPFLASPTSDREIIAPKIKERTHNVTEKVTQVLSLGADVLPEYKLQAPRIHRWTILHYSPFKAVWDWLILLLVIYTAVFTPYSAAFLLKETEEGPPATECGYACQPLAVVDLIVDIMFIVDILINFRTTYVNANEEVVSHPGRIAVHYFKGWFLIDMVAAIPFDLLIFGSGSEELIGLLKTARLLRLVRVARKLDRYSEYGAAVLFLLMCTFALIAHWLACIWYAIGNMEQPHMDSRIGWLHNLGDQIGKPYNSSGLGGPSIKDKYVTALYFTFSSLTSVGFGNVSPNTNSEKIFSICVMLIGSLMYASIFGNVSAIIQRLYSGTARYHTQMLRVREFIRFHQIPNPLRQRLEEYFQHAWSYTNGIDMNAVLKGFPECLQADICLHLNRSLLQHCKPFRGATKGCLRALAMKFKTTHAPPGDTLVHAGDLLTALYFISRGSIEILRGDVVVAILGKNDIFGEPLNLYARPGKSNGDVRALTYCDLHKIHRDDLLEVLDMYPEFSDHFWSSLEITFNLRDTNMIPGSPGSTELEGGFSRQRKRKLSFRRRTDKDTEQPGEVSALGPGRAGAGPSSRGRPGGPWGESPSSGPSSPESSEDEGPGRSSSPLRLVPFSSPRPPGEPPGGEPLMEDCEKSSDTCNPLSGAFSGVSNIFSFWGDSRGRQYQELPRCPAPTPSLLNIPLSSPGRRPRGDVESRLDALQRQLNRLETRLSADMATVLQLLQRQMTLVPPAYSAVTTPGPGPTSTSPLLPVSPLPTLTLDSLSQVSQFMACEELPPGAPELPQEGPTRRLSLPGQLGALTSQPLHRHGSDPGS
# [6] = Brain tissue binding (dialysis of brain homogenate); assay type: in vitro ADME; details: pH 7.4, brain homogenate 20 mg/mL, 2 µM compound, 37 °C, read-out: Brain Tissue Binding [fu,bound (%)]
# Description: Figure S3B. SirT1 protein levels in N2a-E4 cells after A03 and DDL-214 treatment. Compound treatment was done at 5 and 50 µM. SirT1 levels were measured by AlphaLISA followed and normalized to protein […]
# DDL-218 Physiochemical Properties
# Brain Tissue Binding [fu,bound (%)]
# Brain tissue was homogenized in PBS (pH 7.4) (1: 3 weight(mg)/volume(µL)) and the protein concentration of was determined using the Micro BCA™ Protein Assay Kit (Thermo Fisher Scientific, Cat#23235). Brain homogenate was diluted to 20 mg/mL in PBS (pH 7.4) and added to Slide-A-Lyzer™ MINI Dialysis Devices, 10K MWCO dialysis cups (Thermo Fisher Scientific, Cat#PI88401) in 48-well plate containing PBS (500 µL; pH 7.4). 1 µL of […] compound was added to the brain homogenate (Final Concentration: 2 µM compound, 0.5% DMSO) and incubated on a rocker for 4.5 hours at 37 °C. 50 µL of brain homogenate (within the dialysis cup) and PBS (within the 48-well plate) were transferred to new microcentrifuge tubes containing 200 µL of quenching reagent (100% Acetonitrile) containing internal standard. […]
# The % of the unbound drug (fu,bound) was calculated using the following equation: fu,bound = [normalized peak area in buffer side / normalized peak area in brain side] x 100 Liver Microsome Stability [t1/2 (min)] […]
smiles,measurement,setting,value
CC(N)C(=O)OC(C)(C)Cc1ccncc1 (stereo not drawn) [DDL-218],"latency to enter the escape hole, 48-hour post-training probe",[1],decrease in latency
same,hippocampal NFYb mRNA,[2],significantly increased
same,increase of mean SirT1 protein levels in hippocampi,[3],~ 20%
same,observable adverse effects,[4],not associated with any observable adverse effects
same,EC50,[5],> 10 µM
same,"fraction unbound at 4.5 h, 2 µM",[6],0.43
